In article PMC3816012 (Structure (London, England : 1993), 2013):

Biological target: Qcl (Legionella pneumophila, UniProt O54635)
Assay: biochemical

Sequence of Qcl (O54635 49-191 limits assumed): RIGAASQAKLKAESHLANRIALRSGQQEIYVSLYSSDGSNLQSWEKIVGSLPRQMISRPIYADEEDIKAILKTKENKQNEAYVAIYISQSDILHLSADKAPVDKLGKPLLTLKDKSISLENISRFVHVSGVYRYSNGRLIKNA

`NC(=O)c1ccc[n+]([C@@H]2O[C@H](COP(=O)(O)OP(=O)(O)OC[C@H]3O[C@@H](n4cnc5c(N)ncnc54)[C@H](O)[C@@H]3O)[C@@H](O)[C@H]2O)c1` [NAD+] was tested, and the Kd was 400 to 600 µM.
